These results are taken from PubChem BioAssay (NCI).

Some test systems named below: NCI-H23 lung; SN12C renal; SNB-75 CNS; T-47D breast; NCI/ADR-RES ovarian; A498 renal; KM12 colon; SK-MEL-5 melanoma; NCI-H226 lung; IGROV1 ovarian.
Holding throughout (test): NCI anticancer screen, dose series, 48 h

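96-well plates; 48 h exposure; 5 concentrations. Endpoints by linear interpolation between flanking doses. Not reached: highest tested concentration assigned. GI50 = concentration required for 50% inhibition of growth. At the TGI there is no net growth.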 Where only a bound is given, the exact number is not on record here.

With `Nn1c(Cc2ccc(Cl)cc2)n[nH]c1=O`, the TGI in the experiment on NCI-H23 lung, with SN12C renal, with SNB-75 CNS, with T-47D breast, in the experiment with NCI/ADR-RES ovarian and in the experiment on A498 renal was over 100 µM in each case. The TGI in the experiment on KM12 colon, in the experiment with SK-MEL-5 melanoma, with NCI-H226 lung and with IGROV1 ovarian was over 100 µM in each case.
On to `Cn1ccnc1CCc1ccc(F)cc1F`, for which the TGI in the experiment with NCI-H23 lung, in the experiment on SN12C renal, in the experiment on SNB-75 CNS, in the experiment on T-47D breast, with NCI/ADR-RES ovarian and in the experiment with A498 renal was over 100 µM each time. For the same compound, the TGI in the experiment with KM12 colon, in the experiment on SK-MEL-5 melanoma, in the experiment on NCI-H226 lung and with IGROV1 ovarian was over 100 µM each time.
Take `COC(c1ccsc1)C(C#N)(C#N)N=Cc1ccsc1` (stereo not drawn): the TGI in the experiment with NCI-H23 lung was 26.2 µM; with SN12C renal it was 30.8 µM; with SNB-75 CNS it was 29.9 µM; in the experiment with T-47D breast it was 67.7 µM; with NCI/ADR-RES ovarian it was 53.1 µM; in the experiment on A498 renal it was 29.1 µM. Besides, the TGI was 32.3 µM with KM12 colon, 27.7 µM in the experiment on SK-MEL-5 melanoma, 54.9 µM with NCI-H226 lung and 52 µM with IGROV1 ovarian.
Regarding `Cc1c(CNc2ccc(Cl)c(C(=O)NC(CC(=O)O)C(=O)O)c2)ccc2nc(N)nc(N)c12` (stereo not drawn), the GI50 is 0.357 µM with NCI-H23 lung; 122 µM in the experiment with SNB-75 CNS; over 1000 µM with T-47D breast; 24.9 µM in the experiment on A498 renal; 0.36 µM in the experiment with SK-MEL-5 melanoma; over 1000 µM in the experiment with NCI-H226 lung. Besides, the GI50 in the experiment with IGROV1 ovarian is 50.4 µM. For the same compound, the TGI with NCI-H23 lung was over 1000 µM; with SN12C renal, over 1000 µM; in the experiment on SNB-75 CNS it was over 1000 µM; with T-47D breast, over 1000 µM; in the experiment with NCI/ADR-RES ovarian, over 1000 µM; in the experiment with A498 renal it was 680 µM. Also, the TGI with KM12 colon was over 1000 µM; with SK-MEL-5 melanoma, over 1000 µM; in the experiment on NCI-H226 lung, over 1000 µM; in the experiment with IGROV1 ovarian, 232 µM.
Regarding `COc1ccc2c(c1)OCC1(O)Cc3ccccc3OC21` (stereo not drawn), the TGI in the experiment on NCI-H23 lung, with SN12C renal, in the experiment on SNB-75 CNS, in the experiment with T-47D breast, in the experiment with NCI/ADR-RES ovarian and in the experiment on A498 renal was over 100 µM each time. The TGI with KM12 colon, in the experiment with SK-MEL-5 melanoma, in the experiment with NCI-H226 lung and with IGROV1 ovarian was over 100 µM each time.
In the case of `O=C(Nc1ccccc1)c1cc2c(cc1Cl)Sc1nccn1S2(=O)=O`, the TGI in the experiment on NCI-H23 lung is 53.8 µM; in the experiment with SN12C renal, over 100 µM; in the experiment on SNB-75 CNS it was 63.7 µM; in the experiment with T-47D breast, over 72.9 µM; with NCI/ADR-RES ovarian, over 100 µM; with A498 renal, over 70.9 µM. The TGI was 54.4 µM in the experiment with KM12 colon, 31.1 µM in the experiment with SK-MEL-5 melanoma, over 100 µM in the experiment with NCI-H226 lung and over 72.1 µM with IGROV1 ovarian. In addition, in the experiment with NCI-H226 lung, the GI50 is 28.6 µM.
Take `COc1ccc(-c2oc3ccc(C)cc3c(=O)c2O)cc1`: the TGI in the experiment with NCI-H23 lung, with SN12C renal, with SNB-75 CNS, with T-47D breast, in the experiment on NCI/ADR-RES ovarian and in the experiment on A498 renal was over 100 µM throughout. The TGI with KM12 colon, in the experiment on SK-MEL-5 melanoma, in the experiment with NCI-H226 lung and with IGROV1 ovarian was over 100 µM throughout.
Take `C[C@]12CC[C@H]3[C@@H](CCC4=CC(=O)C=C[C@@]43O)[C@@H]1CCC2=O`: the TGI in the experiment with NCI-H23 lung, in the experiment on SN12C renal, in the experiment on SNB-75 CNS, with T-47D breast, in the experiment with NCI/ADR-RES ovarian and in the experiment with A498 renal was over 100 µM in each case. The TGI in the experiment with KM12 colon, in the experiment with SK-MEL-5 melanoma, in the experiment with NCI-H226 lung and in the experiment with IGROV1 ovarian was over 100 µM each time.
For `CC1=NN(c2cccc(Cl)c2)C2(C1)C(Cl)C(=O)N2c1nc2ccccc2s1` (stereo not drawn), the TGI in the experiment with NCI-H23 lung is 49.5 µM; in the experiment on SN12C renal, 82.3 µM; with SNB-75 CNS, 67.1 µM; in the experiment with T-47D breast, 97.4 µM; in the experiment with NCI/ADR-RES ovarian it was 69.7 µM; in the experiment on A498 renal it was over 100 µM. Moreover, the TGI is over 100 µM in the experiment with KM12 colon, 44.4 µM with SK-MEL-5 melanoma, 43.4 µM in the experiment with NCI-H226 lung and over 100 µM with IGROV1 ovarian.
As to `CCCCC/C=C1/CC(CO)(COC(=O)CC(C(C)C)C(C)C)OC1=O` (stereo not drawn), the TGI with NCI-H23 lung came out at 31.7 µM; in the experiment with SN12C renal, 26 µM; with SNB-75 CNS it was 22.6 µM; in the experiment on T-47D breast it was 40.5 µM; with NCI/ADR-RES ovarian, 38.9 µM; in the experiment with A498 renal it was 26.5 µM. Besides, the TGI in the experiment with KM12 colon worked out at 30.5 µM; with SK-MEL-5 melanoma, 21.5 µM; in the experiment with NCI-H226 lung, 24.9 µM; in the experiment with IGROV1 ovarian, 31.7 µM.
For the compound `Cc1c(-c2ccccc2)c(C#N)c2nnn(-c3ccccc3)c(=O)n12`, the TGI in the experiment on NCI-H23 lung, in the experiment on SN12C renal, with SNB-75 CNS, in the experiment on T-47D breast, in the experiment with NCI/ADR-RES ovarian and in the experiment on A498 renal was over 100 µM throughout. In addition, the TGI in the experiment on KM12 colon, in the experiment on SK-MEL-5 melanoma, in the experiment on NCI-H226 lung and in the experiment on IGROV1 ovarian was over 100 µM each time.
In the case of `CCOC(=O)C(=[N+]=[N-])C(=O)C[N+]12CCN(CC1)CC2`, the TGI with NCI-H23 lung, in the experiment with SN12C renal, in the experiment on SNB-75 CNS, in the experiment on T-47D breast, in the experiment with NCI/ADR-RES ovarian and in the experiment with A498 renal was over 100 µM throughout. In addition, the TGI with KM12 colon, in the experiment on SK-MEL-5 melanoma, with NCI-H226 lung and in the experiment on IGROV1 ovarian was over 100 µM in each case.
Consider `COc1cc(/C=C2\C[C@H]3[C@@H]4CC=C5C[C@@H](N6CCCC6)CC[C@]5(C)[C@H]4CC[C@]3(C)[C@H]2O)cc(OC)c1OC`, for which the TGI came out at 29.9 µM with NCI-H23 lung; 29.6 µM in the experiment on SN12C renal; 25.8 µM with SNB-75 CNS; 44.6 µM in the experiment with T-47D breast; 40.8 µM in the experiment on NCI/ADR-RES ovarian; 30.2 µM in the experiment with A498 renal. The TGI came out at 23 µM in the experiment with KM12 colon, 30 µM with SK-MEL-5 melanoma, 39.7 µM in the experiment with NCI-H226 lung and 30 µM in the experiment on IGROV1 ovarian.
